Data taken from patent US10597383B2, “Bicyclic proline compounds” (Genentech, Inc., priority 2016, dated 2020).

target: human TRPA1 (Homo sapiens (Human), UniProt O75762); assay: hTRPA1 CHO Ca2+ AUC EVO (IC50); FLIPR Tetra block of cinnamaldehyde induced calcium influx; type: cell-based; settings: Table 3; CHO cells expressing TRPA1; 75 uM cinnamaldehyde (~EC80) as agonist
Description: IC50 ([…]) of compounds on the human and rat TRPA1 channels were determined using a FLIPR Tetra instrument. CHO cells expressing TRPA1 were plated into 384-well plates, incubated overnight at 37° C., and loaded with BD calcium indicator dye for 1 hr at 37° C. followed by 15 minutes. at room temperature. The assay buffer was Hank's Balanced Salt Solution (HBSS) containing 20 mM HEPES (pH readjusted to 7.4) along with 0.02% BSA.
Following dye load and plate cool down, compounds were added to the cells using FLIPR Tetra. Plates were then incubated with compounds for 20 minutes at room temperature prior to adding agonist. Following this incubation, ˜EC80 concentration of cinnamaldehyde (75 uM for human TRPA1 and 45 uM for rat TRPA1) was added to active the channels and block of cinnamaldehyde induced calcium influx was measured.
IC50 values were fit with a standard Hill function, keeping the Hill coefficient (n) fixed to 1.5. Fixing the Hill coefficient will generally reduce variability of the IC50 determination. The IC50 values were individually examined to make sure the MIN and MAX points were set correctly prior to validation of the results.

human TRPA1, sequence (O75762 whole entry): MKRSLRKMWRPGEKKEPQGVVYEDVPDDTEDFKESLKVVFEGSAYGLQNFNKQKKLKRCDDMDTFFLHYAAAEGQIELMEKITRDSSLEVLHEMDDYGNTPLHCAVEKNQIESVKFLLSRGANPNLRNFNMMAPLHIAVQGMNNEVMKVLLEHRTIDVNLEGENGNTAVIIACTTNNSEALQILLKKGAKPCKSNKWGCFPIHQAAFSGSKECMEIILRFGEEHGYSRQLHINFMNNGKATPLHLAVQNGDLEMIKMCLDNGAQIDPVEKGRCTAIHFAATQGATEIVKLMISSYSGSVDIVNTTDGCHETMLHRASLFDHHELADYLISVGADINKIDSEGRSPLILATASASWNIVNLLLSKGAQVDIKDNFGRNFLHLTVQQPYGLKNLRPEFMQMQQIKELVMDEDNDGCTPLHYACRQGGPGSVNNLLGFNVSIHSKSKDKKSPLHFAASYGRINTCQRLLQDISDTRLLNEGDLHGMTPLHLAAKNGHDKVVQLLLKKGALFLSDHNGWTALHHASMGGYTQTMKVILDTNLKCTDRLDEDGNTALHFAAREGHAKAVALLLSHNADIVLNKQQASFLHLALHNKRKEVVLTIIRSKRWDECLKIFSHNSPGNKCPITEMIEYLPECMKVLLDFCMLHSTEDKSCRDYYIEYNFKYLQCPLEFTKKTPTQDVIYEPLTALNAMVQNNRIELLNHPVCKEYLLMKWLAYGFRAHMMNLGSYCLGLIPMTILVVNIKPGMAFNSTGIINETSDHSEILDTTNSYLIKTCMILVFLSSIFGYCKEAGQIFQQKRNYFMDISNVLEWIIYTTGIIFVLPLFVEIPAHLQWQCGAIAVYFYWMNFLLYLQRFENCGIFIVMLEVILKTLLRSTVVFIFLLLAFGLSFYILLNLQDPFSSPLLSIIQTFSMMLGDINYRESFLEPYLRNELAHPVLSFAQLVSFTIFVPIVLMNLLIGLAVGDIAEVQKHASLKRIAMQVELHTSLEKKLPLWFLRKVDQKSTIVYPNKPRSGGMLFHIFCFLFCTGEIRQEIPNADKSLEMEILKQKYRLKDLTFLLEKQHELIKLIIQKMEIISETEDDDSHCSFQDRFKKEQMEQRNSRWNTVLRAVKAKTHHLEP

| IC50 [nM] | SMILES |
| --- | --- |
| 2.77 | O=C(NCc1cc(-c2cnc(C(F)(F)F)nc2)ncc1OC(F)(F)F)[C@@H]1C2CC(C2)N1S(=O)(=O)c1ccc(F)cc1 [compound 15, (2S)-3-(4-fluorophenyl)sulfonyl-N-[[5-(trifluoromethoxy)-2-[2-(trifluoromethyl)pyrimidin-5-yl]-4-pyridyl]methyl]-3-azabicyclo[2.1.1]hexane-2-carboxamide] |
| 9.89 | O=C(NCc1cc(-c2cnc(C(F)(F)F)nc2)ccc1F)[C@@H]1C2CC(C2)N1S(=O)(=O)c1ccc(F)cc1 [compound 16, (2S)-3-(4-fluorophenyl)sulfonyl-N-[[2-fluoro-5-[2-(trifluoromethyl)pyrimidin-5-yl]phenyl]methyl]-3-azabicyclo[2.1.1]hexane-2-carboxamide] |
| 6.06 | O=C(NCc1cc(-c2ccc(C(F)(F)F)nc2)ccc1F)[C@@H]1C2CC(C2)N1S(=O)(=O)c1ccc(F)cc1 [compound 17, (2S)-3-(4-fluorophenyl)sulfonyl-N-[[2-fluoro-5-[6-(trifluoromethyl)-3-pyridyl]phenyl]methyl]-3-azabicyclo[2.1.1]hexane-2-carboxamide] |
| 8.97 | O=C(NCc1cc(F)cc(-c2cnc(C(F)(F)F)nc2)c1)[C@@H]1C2CC(C2)N1S(=O)(=O)c1ccc(F)cc1 [compound 19, (2S)-3-(4-fluorophenyl)sulfonyl-N-[[3-fluoro-5-[2-(trifluoromethyl)pyrimidin-5-yl]phenyl]methyl]-3-azabicyclo[2.1.1]hexane-2-carboxamide] |
| 6.11 | O=C(NCc1cc(F)cc(-c2ccc(C(F)(F)F)nc2)c1)[C@@H]1C2CC(C2)N1S(=O)(=O)c1ccc(F)cc1 [compound 20, (2S)-3-(4-fluorophenyl)sulfonyl-N-[[3-fluoro-5-[6-(trifluoromethyl)-3-pyridyl]phenyl]methyl]-3-azabicyclo[2.1.1]hexane-2-carboxamide] |
| 27.6 | Cn1nc(C(F)(F)F)cc1-c1cc(F)cc(CNC(=O)[C@@H]2C3CC(C3)N2S(=O)(=O)c2ccc(F)cc2)c1 [compound 21, (2S)-N-[[3-fluoro-5-[2-methyl-5-(trifluoromethyl)pyrazol-3-yl]phenyl]methyl]-3-(4-fluorophenyl)sulfonyl-3-azabicyclo[2.1.1]hexane-2-carboxamide] |
| 4.84 | O=C(NCc1cn(-c2cnc(C(F)(F)F)nc2)nc1C(F)(F)F)[C@@H]1C2CC(C2)N1S(=O)(=O)c1ccc(F)cc1 [compound 29, (2S)-3-(4-fluorophenyl)sulfonyl-N-[[3-(trifluoromethyl)-1-[2-(trifluoromethyl)pyrimidin-5-yl]pyrazol-4-yl]methyl]-3-azabicyclo[2.1.1]hexane-2-carboxamide] |
| 1.18 | O=C(NCc1cc(-c2cnc(C(F)(F)F)nc2)nc(C(F)(F)F)n1)[C@@H]1C2CC(C2)N1S(=O)(=O)c1ccc(F)cc1 [compound 30, (2S)-3-(4-fluorophenyl)sulfonyl-N-[[2-(trifluoromethyl)-6-[2-(trifluoromethyl)pyrimidin-5-yl]pyrimidin-4-yl]methyl]-3-azabicyclo[2.1.1]hexane-2-carboxamide] |
| 1.85 | O=C(NCc1cc(-c2cnc(C(F)(F)F)nc2)ncc1C(F)(F)F)[C@@H]1C2CC(C2)N1S(=O)(=O)c1cc2cc(F)ccc2o1 [compound 31, (2S)-3-(5-fluorobenzofuran-2-yl)sulfonyl-N-[[5-(trifluoromethyl)-2-[2-(trifluoromethyl)pyrimidin-5-yl]-4-pyridyl]methyl]-3-azabicyclo[2.1.1]hexane-2-carboxamide] |
| 7.24 | O=C(NCc1cc(-c2cnc(C(F)(F)F)nc2)cc(C2CC2)n1)[C@@H]1C2CC(C2)N1S(=O)(=O)c1ccc(F)cc1 [compound 32, (2S)-N-[[6-cyclopropyl-4-[2-(trifluoromethyl)pyrimidin-5-yl]-2-pyridyl]methyl]-3-(4-fluorophenyl)sulfonyl-3-azabicyclo[2.1.1]hexane-2-carboxamide] |
| 3.55 | O=C(NCc1cc(-c2cnc(C(F)(F)F)nc2)nc(C2CC2)c1)[C@@H]1C2CC(C2)N1S(=O)(=O)c1ccc(F)cc1 [compound 33, (2S)-N-[[2-cyclopropyl-6-[2-(trifluoromethyl)pyrimidin-5-yl]-4-pyridyl]methyl]-3-(4-fluorophenyl)sulfonyl-3-azabicyclo[2.1.1]hexane-2-carboxamide] |
| 19.1 | COc1nn(-c2cnc(C(F)(F)F)nc2)cc1CNC(=O)[C@@H]1C2CC(C2)N1S(=O)(=O)c1ccc(F)cc1 [compound 34, (2S)-3-(4-fluorophenyl)sulfonyl-N-[[3-methoxy-1-[2-(trifluoromethyl)pyrimidin-5-yl]pyrazol-4-yl]methyl]-3-azabicyclo[2.1.1]hexane-2-carboxamide] |
| 4.24 | O=C(NCc1cc(-c2cnc(C(F)(F)F)nc2)nc(OCC(F)(F)F)n1)[C@@H]1C2CC(C2)N1S(=O)(=O)c1ccc(F)cc1 [compound 35, (2S)-3-(4-fluorophenyl)sulfonyl-N-[[2-(2,2,2-trifluoroethoxy)-6-[2-(trifluoromethyl)pyrimidin-5-yl]pyrimidin-4-yl]methyl]-3-azabicyclo[2.1.1]hexane-2-carboxamide] |

| SMILES | IC50 [nM] |
| --- | --- |
| Cn1nc(C(F)(F)F)cc1-c1ccc(F)c(CNC(=O)[C@@H]2C3CC(C3)N2S(=O)(=O)c2ccc(F)cc2)c1 [compound 18, (2S)-N-[[2-fluoro-5-[2-methyl-5-(trifluoromethyl)pyrazol-3-yl]phenyl]methyl]-3-(4-fluorophenyl)sulfonyl-3-azabicyclo[2.1.1]hexane-2-carboxamide] | 15.7 |
